Results as given in US20230083012A1, “DIHYDROPYRIMIDINE DERIVATIVES AND USES THEREOF IN THE TREATMENT OF HBV INFECTION OR OF HBV-INDUCED DISEASES” (priority 2019, published 2023).
Where two headings read alike, the source gives them in different places.

Experiments:
[1] = tested on: HBV; experiment: Anti-HBV activity in HepG2.2.15 cells (HBV DNA in culture medium by qPCR); format: cell-based; conditions: HepG2.2.15 cells, 6 days treatment, HBV DNA in culture medium quantified by real-time PCR, read-out: EC50
How it was run: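 Secreted HBV DNA was measured by real-time PCR after 6-day compound exposure of HepG2.2.15 cells (2% FBS, 37 °C, re-dosed after 3 days), giving EC50 from 8-point 1:3 series starting at 10 or 1 uM. Cytotoxicity (CC50) run separately at lower cell density, top 100 uM.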

[2] = Cytotoxicity determination in HepG2.2.15 cells (CCK-8 cell viability); format: cell-based; conditions: human, 6 days treatment, CCK-8 assay, highest concentration 100 uM
How it was run: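 Viability measured by CCK-8 absorbance (450 nm, 630 nm reference, 2.5 h at 37° C) after six days of treatment, medium and compound renewed on day 3. Top concentration 100 uM, eight threefold dilutions in triplicate; cells plated at 5,000/well in 2% FBS medium; CC50 derived.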

[3] = Hepatitis B virus, HepG2.2.15, 144 h

Structure (SMILES) | EC50 [1, 3] [nM] | CC50 at 6 days [2] [nM] | EC50 [1] [nM]
CCOC(=O)C1=C(CN2CC(F)(F)[C@@H]3[C@H]2CN(C)N3CCC(C)(C)C(=O)O)NC(c2nccs2)=N[C@H]1c1cccc(F)c1Cl (single isomer, unassigned) [Compound 102, 4-((cis)-4-((6-(2-chloro-3-fluorophenyl)-5-(ethoxycarbonyl)-2-(thiazol-2-yl)-3,6-dihydropyrimidin-4-yl)methyl)-6,6-difluoro-2-methylhexahydropyrrolo[3,2-c]pyrazol-1(2H)-yl)-2,2-dimethylbutanoic acid] | 13.5 | 53800 | 
CCOC(=O)C1=C(CN2CC(F)(F)[C@@H]3NCC[C@@H]32)NC(c2nccs2)=N[C@H]1c1cccc(F)c1C (single isomer, unassigned) [Compound 103] | 54.3 | 19800 | 
CCOC(=O)C1=C(CN2CC(F)(F)[C@H]3[C@@H]2CCN3[C@H]2CC[C@@H](C(=O)O)CC2)NC(c2nccs2)=N[C@H]1c1cccc(F)c1C (single isomer, unassigned) [Compound 104A] | 10.4 | 16100 | 
CCOC(=O)C1=C(CN2CC(F)(F)[C@H]3[C@@H]2CCN3C2CCC(C(=O)O)CC2)NC(c2nccs2)=N[C@H]1c1cccc(F)c1C (single isomer, unassigned) [Compound 104B] | 8 | > 6200 | 
CCOC(=O)C1=C(CN2CC(F)(F)[C@H]3[C@@H]2CCN3[C@H](C)CC(C)(C)C(=O)O)NC(c2nccs2)=N[C@H]1c1cccc(F)c1C (single isomer, unassigned) [Compound 105A] | 10.5 | 15200 | 
CCOC(=O)C1=C(CN2CC(F)(F)[C@H]3[C@@H]2CCN3[C@@H](C)CC(C)(C)C(=O)O)NC(c2nccs2)=N[C@H]1c1cccc(F)c1C (single isomer, unassigned) [Compound 105B] | 108 | 94300 | 
CCOC(=O)C1=C(CN2CC(F)(F)[C@H]3[C@@H]2CCN3CC(C)(C)C(=O)O)NC(c2nccs2)=N[C@@H]1c1cccc(O)c1C (single isomer, unassigned) [Compound 106, (cis)-3-(4-((5-(ethoxycarbonyl)-6-(3-hydroxy-2-methylphenyl)-2-(thiazol-2-yl)-3,6-dihydropyrimidin-4-yl)methyl)-6,6-difluorohexahydropyrrolo[3,2-b]pyrrol-1(2H)-yl)-2,2-dimethylpropanoic acid] | 20 | 39500 | 
CCOC(=O)C1=C(CN2CC(F)(F)[C@H]3[C@@H]2CCN3CCC(C)(C)c2nnn[nH]2)NC(c2nccs2)=N[C@H]1c1cccc(F)c1C (single isomer, unassigned) [Compound 108] | 0.4 | 13100 | 
CCOC(=O)C1=C(CN2CC(F)(F)[C@H]3[C@@H]2CCN3CC(C)(C)C(=O)NS(C)(=O)=O)NC(c2nccs2)=N[C@H]1c1cccc(F)c1C (single isomer, unassigned) [Compound 109] | < 1 | 7300 | 
CCOC(=O)C1=C(CN2CC(F)(F)[C@H]3[C@@H]2CCN3CCOC(C)(C)C(=O)O)NC(c2nccs2)=N[C@H]1c1cccc(F)c1C (single isomer, unassigned) [Compound 111] | 7.8 | 33400 | 
CCOC(=O)C1=C(CN2CC(F)(F)C3[C@@H]2CCN3[C@H]2C[C@](C)(C(=O)O)C2)NC(c2nccs2)=N[C@H]1c1cccc(F)c1C (single isomer, unassigned) [Compound 112A] | 4.6 | 28700 | 
CCOC(=O)C1=C(CN2CC(F)(F)C3[C@@H]2CCN3[C@H]2C[C@@](C)(C(=O)O)C2)NC(c2nccs2)=N[C@H]1c1cccc(F)c1C (single isomer, unassigned) [Compound 112B] | 4.7 | 23600 | 
CCOC(=O)C1=C(CN2CC(F)(F)C3[C@@H]2CCN3C2CC(C)(C(=O)O)C2)NC(c2nccs2)=N[C@H]1c1cccc(F)c1C (single isomer, unassigned) [Compound 112] | 5.3 | 28600 | 
[H][C@]1(N2CC[C@H]3[C@@H]2C(F)(F)CN3CC2=C(C(=O)OCC)[C@H](c3cccc(F)c3C)N=C(c3nccs3)N2)C[C@@]2(C[C@@H](C(=O)O)C2)C1 (single isomer, unassigned) [Compound 113A] | 5 | > 3000 | 
[H][C@]1(C(=O)O)C[C@@]2(C1)C[C@@]([H])(N1CC[C@H]3[C@@H]1C(F)(F)CN3CC1=C(C(=O)OCC)[C@H](c3cccc(F)c3C)N=C(c3nccs3)N1)C2 (single isomer, unassigned) [Compound 113B] | < 1 | > 3100 | 
CCOC(=O)C1=C(CN2CC(F)(F)[C@H]3[C@@H]2CCN3C2CC3(CC(C(=O)O)C3)C2)NC(c2nccs2)=N[C@H]1c1cccc(F)c1C (single isomer, unassigned) [Compound 113] | 2.2 | 12500 | 

Structure (SMILES) | EC50 [1, 3] [nM] | CC50 at 6 days [2] [nM] | EC50 [1] [nM]
CCOC(=O)C1=C(CN2CC(F)(F)[C@H]3[C@@H]2CCN3C2CCC(C(=O)O)C2)NC(c2nccs2)=N[C@H]1c1cccc(F)c1C (single isomer, unassigned) [Compound 115] | 3.1 | 24000 | 
CCOC(=O)C1=C(CN2CC(F)(F)[C@H]3[C@@H]2CCN3C[C@H]2C[C@@](C)(C(=O)O)C2)NC(c2nccs2)=N[C@H]1c1cccc(F)c1C (single isomer, unassigned) [Compound 116A] | 0.8 | 12100 | 
CCOC(=O)C1=C(CN2CC(F)(F)[C@H]3[C@@H]2CCN3C[C@H]2C[C@](C)(C(=O)O)C2)NC(c2nccs2)=N[C@H]1c1cccc(F)c1C (single isomer, unassigned) [Compound 116B] | 2.5 | 10600 | 
CCOC(=O)C1=C(CN2CC(F)(F)[C@H]3[C@@H]2CCN3CCC2(C(=O)O)CC2)NC(c2nccs2)=N[C@H]1c1cccc(F)c1C (single isomer, unassigned) [Compound 117] | < 0.5 | 24700 | 
CCOC(=O)C1=C(CN2CC(F)(F)[C@H]3[C@@H]2CCN3CCC(C)(C)C(=O)O)NC(c2nc(C)cs2)=N[C@H]1c1cccc(F)c1C (single isomer, unassigned) [Compound 118] | 5.4 | 12700 | 
CCOC(=O)C1=C(CN2C[C@H](F)[C@H]3[C@@H]2CCN3CCC(C)(C)C(=O)O)NC(c2nccs2)=N[C@H]1c1cccc(F)c1C (single isomer, unassigned) [Compound 119] | 55.5 | 20200 | 
[H][C@]1(N2CC[C@H]3[C@@H]2C(F)(F)CN3CC2=C(C(=O)OC)[C@H](c3cccc(F)c3F)N=C(c3nccs3)N2)C[C@@]2(C[C@@H](C(=O)O)C2)C1 (single isomer, unassigned) [Compound 120A] | 12 | 28100 | 
[H][C@]1(N2CC[C@H]3[C@@H]2C(F)(F)CN3CC2=C(C(=O)OC)[C@H](c3cccc(F)c3F)N=C(c3nccs3)N2)C[C@]2(C[C@@H](C(=O)O)C2)C1 (single isomer, unassigned) [Compound 120B] |  | 19900 | 13
CCOC(=O)C1=C(CN2CC(F)(F)[C@H]3[C@@H]2CCN3C[C@@H](CC)C(=O)O)NC(c2nccs2)=N[C@@H]1c1ccc(F)nc1C (single isomer, unassigned) [Compound 122A, 2-(((cis)-4-((5-(ethoxycarbonyl)-6-(6-fluoro-2-methylpyridin-3-yl)-2-(thiazol-2-yl)-3,6-dihydropyrimidin-4-yl)methyl)-6,6-difluorohexahydropyrrolo[3,2-b]pyrrol-1(2H)-yl)methyl)butanoic acid] | 6 | > 100000 | 
CCOC(=O)C1=C(CN2CC(F)(F)[C@H]3[C@@H]2CCN3[C@H]2C[C@@H](CC(=O)O)C2)NC(c2nccs2)=N[C@H]1c1cccc(F)c1C (single isomer, unassigned) [Compound 123A] | 8 | 18600 | 
CCOC(=O)C1=C(CN2CC(F)(F)[C@H]3[C@@H]2CCN3[C@H]2C[C@H](CC(=O)O)C2)NC(c2nccs2)=N[C@H]1c1cccc(F)c1C (single isomer, unassigned) [Compound 123B] | 9 | 16100 | 
CCOC(=O)C1=C(CN2CC(F)(F)[C@H]3[C@@H]2CCN3c2nc(C(=O)O)cs2)NC(c2nccs2)=N[C@H]1c1cccc(F)c1C (single isomer, unassigned) [Compound 124] | 24.2 | 7700 | 
COC(=O)C1=C(CN2CC(F)(F)[C@H]3[C@@H]2CCN3CCC(C)(C)C(=O)O)NC(c2ncoc2C)=N[C@H]1c1ccc(F)cc1Cl (single isomer, unassigned) [Compound 125, 4-((cis)-4-((6-(2-chloro-4-fluorophenyl)-5-(methoxycarbonyl)-2-(5-methyloxazol-4-yl)-3,6-dihydropyrimidin-4-yl)methyl)-6,6-difluorohexahydropyrrolo[3,2-b]pyrrol-1(2H)-yl)-2,2-dimethylbutanoic acid] | 9.3 | 58400 | 
COC(=O)C1=C(CN2CC(F)(F)[C@H]3[C@@H]2CCN3CCC(C)(C)C(=O)O)NC(c2nccs2)=N[C@H]1c1ccc(F)c(F)c1Cl (single isomer, unassigned) [Compound 126] | 3.4 | 27200 | 
COC(=O)C1=C(CN2CC(F)(F)[C@H]3[C@@H]2CCN3CCC(C)(C)C(=O)O)NC(c2nccs2)=N[C@H]1c1ccc(F)cc1Cl (single isomer, unassigned) [Compound 127, 4-((cis)-4-((6-(2-Chloro-4-fluorophenyl)-5-(methoxycarbonyl)-2-(thiazol-2-yl)-3,6-dihydropyrimidin-4-yl)methyl)-6,6-difluorohexahydropyrrolo[3,2-b]pyrrol-1(2H)-yl)-2,2-dimethylbutanoic acid] | 1.6 | 47200 | 
